Measurements: patent US20190151341A1, “APPLICATION OF TENVERMECTIN FOR PREVENTING AND TREATING PARASITE INFECTION” (ZHEJIANG HISUN PHARMACEUTICAL CO., LTD., priority 2016, published 2019)

Tested on: allogynogenetic crucian carp
Experiment: Toxicity to allogynogenetic crucian carp, semi-static method, 96 hours
Format: in vivo
Settings: allogynogenetic crucian carp
Source text: Test fish and water: allogynogenetic crucian carp was purchased from Taowang Farm in Jiaojiang District, Taizhou City, with a body length of (9.60±0.52) cm and a body weight of (28.22±3.44) g. The healthy and vigorous fish with the same size were selected and temporarily raised in an indoor aquarium. They were domesticated for 7 days indoors before the test. The natural mortality rate was zero.
99.4% Tenvermectin A (the mass content of tenvermectin B was 0.02%) (Zhejiang Hisun Pharmaceutical Co., Ltd.);
Tenvermectin (the mass ratio of tenvermectin A/tenvermectin B was 95/5) (Zhejiang Hisun Pharmaceutical Co., Ltd.);
Tenvermectin (the mass ratio of tenvermectin A/tenvermectin B was 90/10) (Zhejiang Hisun Pharmaceutical Co., Ltd.);
Tenvermectin (the mass ratio of tenvermectin A/tenvermectin B was 85/15) (Zhejiang Hisun Pharmaceutical Co., Ltd.);
99.1% Tenvermectin B (the mass content of tenvermectin A was 0.51%) (Zhejiang Hisun Pharmaceutical Co., Ltd.);
92% Avermectin (Zhejiang Qianjiang Biochemical Co., Ltd.);
96% Ivermectin (Zhejiang Hisun Pharmaceutical Co., Ltd.);
90% Methylamino avermectin benzoate (Emamectin benzoate) (Zhejiang Shenghua Biok Biotechnology Co., Ltd.).
Method: semi-static method. […]

Structure (SMILES)	Survival condition (survival rates/%) (0.5 ppm, 8 h) [%]	Survival condition (survival rates/%) (0.5 ppm, 24 h) [%]	Survival condition (survival rates/%) (0.5 ppm, 48 h) [%]	Survival condition (survival rates/%) (0.5 ppm, 72 h) [%]	Survival condition (survival rates/%) (0.5 ppm, 96 h) [%]	Survival condition (survival rates/%) (1.0 ppm, 8 h) [%]	Survival condition (survival rates/%) (1.0 ppm, 24 h) [%]	Survival condition (survival rates/%) (1.0 ppm, 48 h) [%]	Survival condition (survival rates/%) (1.0 ppm, 72 h) [%]	Survival condition (survival rates/%) (1.0 ppm, 96 h) [%]	Survival condition (survival rates/%) (2.0 ppm, 8 h) [%]	Survival condition (survival rates/%) (2.0 ppm, 24 h) [%]	Survival condition (survival rates/%) (2.0 ppm, 48 h) [%]	Survival condition (survival rates/%) (2.0 ppm, 72 h) [%]	Survival condition (survival rates/%) (2.0 ppm, 96 h) [%]	toxicity grade according to LC50 (96-hour LC50)
COC1CC(OC2C(C)OC(OC3C(C)=CCC4CC(CC5(CCC(C)C(C)O5)O4)OC(=O)C4C=C(C)C(O)C5OCC(=CC=CC3C)C45O)CC2OC)OC(C)C1O (stereo not drawn) [Tenvermectin A, tenvermectin A]	100	100	100	100	100	100	100	100	100	100	100	100	100	100	100	low toxic
CC[C@H]1O[C@]2(CC[C@@H]1C)C[C@@H]1C[C@@H](C/C=C(\C)[C@@H](O[C@H]3C[C@H](OC)[C@@H](O[C@H]4C[C@H](OC)[C@@H](O)[C@H](C)O4)[C@H](C)O3)[C@@H](C)/C=C/C=C3\CO[C@@H]4[C@H](O)C(C)=C[C@@H](C(=O)O1)[C@]34O)O2 [Tenvermectin B, tenvermectin B]	100	80	33	0	–	75	3	–	–	–	20	0	–	–	–	–
